{
  "source": "ChEMBL document CHEMBL6083240",
  "about": "“Design, synthesis and biological evaluation of arylpropylamine derivatives as potential multi-target antidepressants” (Bioorg Med Chem, 2024)",
  "key": {"[1]": {"target": "T1, Sodium-dependent serotonin transporter (Rattus norvegicus, UniProt P31652)", "T1 sequence (P31652 whole entry)": "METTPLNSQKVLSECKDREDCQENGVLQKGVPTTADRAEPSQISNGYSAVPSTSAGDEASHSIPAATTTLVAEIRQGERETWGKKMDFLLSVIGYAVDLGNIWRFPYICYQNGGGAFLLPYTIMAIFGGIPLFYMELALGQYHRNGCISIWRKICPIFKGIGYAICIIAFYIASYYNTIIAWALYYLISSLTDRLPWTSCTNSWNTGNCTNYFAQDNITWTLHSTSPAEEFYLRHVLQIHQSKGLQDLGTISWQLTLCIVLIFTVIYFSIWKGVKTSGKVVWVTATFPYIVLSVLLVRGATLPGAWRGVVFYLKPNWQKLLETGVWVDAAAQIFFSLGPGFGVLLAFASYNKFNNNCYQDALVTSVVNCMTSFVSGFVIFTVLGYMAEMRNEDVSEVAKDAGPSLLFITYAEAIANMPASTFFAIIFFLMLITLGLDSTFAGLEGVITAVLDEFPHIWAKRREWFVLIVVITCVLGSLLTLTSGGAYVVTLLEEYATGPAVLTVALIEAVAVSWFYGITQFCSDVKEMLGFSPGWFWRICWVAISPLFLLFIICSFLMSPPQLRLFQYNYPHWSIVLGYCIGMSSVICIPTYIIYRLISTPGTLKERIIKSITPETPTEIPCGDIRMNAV", "assay": "Displacement of [3H]-paroxetine from SERT in rat cerebral cortex incubated for 10 mins by liquid scintillation counting method", "assay_type": "tissue-based"}, "[2]": {"target": "5-hydroxytryptamine receptor 7 (Homo sapiens, UniProt P34969)", "sequence (P34969 whole entry)": "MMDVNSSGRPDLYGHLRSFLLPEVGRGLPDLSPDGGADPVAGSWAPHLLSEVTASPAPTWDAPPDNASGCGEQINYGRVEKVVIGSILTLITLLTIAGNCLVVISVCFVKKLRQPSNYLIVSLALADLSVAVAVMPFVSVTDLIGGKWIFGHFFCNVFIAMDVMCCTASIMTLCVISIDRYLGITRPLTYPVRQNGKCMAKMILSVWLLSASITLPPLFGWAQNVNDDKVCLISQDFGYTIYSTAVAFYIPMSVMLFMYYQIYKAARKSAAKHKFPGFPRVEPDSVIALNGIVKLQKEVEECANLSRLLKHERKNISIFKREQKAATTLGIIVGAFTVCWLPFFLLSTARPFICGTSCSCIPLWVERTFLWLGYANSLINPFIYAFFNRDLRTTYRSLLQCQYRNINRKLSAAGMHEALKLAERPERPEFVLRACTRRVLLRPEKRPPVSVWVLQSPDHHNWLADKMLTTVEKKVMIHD", "assay": "Binding affinity to 5-HT7 receptor (unknown origin)"}, "[3]": {"assay": "MRTlast in CD1 mouse at 2 mg/kg, iv measured upto 10 hrs by LC-MS analysis", "assay_type": "ADME, organism-based", "conditions": "in vivo"}, "Rattus norvegicus [4]": {"tested_on": "Rattus norvegicus", "assay": "Antidepressant activity against ACTH-induced treatment resistant depression in Sprague-Dawley rat model assessed as reduction in immobility time at 20 to 40 mg/kg, IG by forced swimming test", "assay_type": "functional, organism-based", "conditions": "dose 20-40 mg/kg"}, "[5]": {"assay": "Half-life in CD1 mouse at 15 mg/kg, po measured upto 24 hrs by LC-MS analysis", "assay_type": "ADME, organism-based", "conditions": "in vivo"}, "Rattus norvegicus [6]": {"tested_on": "Rattus norvegicus", "assay": "Antidepressant activity against ig dosed ACTH-induced treatment resistant depression in Sprague-Dawley rat model assessed as reduction in immobility time by forced swimming test", "assay_type": "functional", "conditions": "po"}, "[7]": {"target": "Glutamate [NMDA] receptor", "assay": "Binding affinity to NMDA receptor (unknown origin)", "assay_type": "protein-complex assay, Homo sapiens"}, "[8]": {"target": "T2, 5-hydroxytryptamine receptor 2C (Rattus norvegicus, UniProt P08909)", "T2 sequence (P08909 whole entry)": "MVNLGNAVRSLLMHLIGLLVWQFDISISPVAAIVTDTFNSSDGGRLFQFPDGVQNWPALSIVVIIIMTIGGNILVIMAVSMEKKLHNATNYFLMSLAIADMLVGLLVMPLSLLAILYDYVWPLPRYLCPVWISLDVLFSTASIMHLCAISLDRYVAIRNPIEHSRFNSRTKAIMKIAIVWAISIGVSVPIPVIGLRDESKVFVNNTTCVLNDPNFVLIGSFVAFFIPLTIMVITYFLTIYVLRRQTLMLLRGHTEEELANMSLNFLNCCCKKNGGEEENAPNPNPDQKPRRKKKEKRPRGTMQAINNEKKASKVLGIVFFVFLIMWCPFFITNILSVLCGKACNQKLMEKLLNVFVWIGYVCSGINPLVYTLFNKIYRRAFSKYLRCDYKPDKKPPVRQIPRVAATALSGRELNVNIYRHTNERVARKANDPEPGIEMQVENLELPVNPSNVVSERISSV", "assay": "Displacement of [3H]-mesulergine from 5-HT2C in rat cerebral cortex incubated for 15 mins by liquid scintillation counting method", "assay_type": "tissue-based"}, "[9]": {"assay": "Half-life in CD1 mouse at 2 mg/kg, iv measured upto 10 hrs by LC-MS analysis", "assay_type": "ADME, organism-based", "conditions": "in vivo"}, "[10]": {"assay": "(§1) In vivo inhibition of 5-HT2A in po dosed DOI-induced Kunming mouse assessed as reduction in head twitch response pretreated for 60 mins followed by DOI induction and measured for 20 mins", "assay_type": "functional", "conditions": "1.333 h, time 80 min"}, "Mus musculus [11]": {"tested_on": "Mus musculus", "assay": "as §1", "assay_type": "functional", "conditions": "time 80.0 min"}, "Mus musculus [12]": {"tested_on": "Mus musculus", "assay": "Antidepressant activity in Kunming mouse assessed as effect on spontaneous locomotor activity by measuring total travel distance at 7.5 to 60 mg/kg, po administered for 60 mins and measured for 15 mins", "assay_type": "functional, organism-based", "conditions": "dose lower […], dose upper 60.0 mg/kg"}, "[13]": {"target": "Sodium-dependent dopamine transporter (Homo sapiens, UniProt Q01959)", "sequence (Q01959 whole entry)": "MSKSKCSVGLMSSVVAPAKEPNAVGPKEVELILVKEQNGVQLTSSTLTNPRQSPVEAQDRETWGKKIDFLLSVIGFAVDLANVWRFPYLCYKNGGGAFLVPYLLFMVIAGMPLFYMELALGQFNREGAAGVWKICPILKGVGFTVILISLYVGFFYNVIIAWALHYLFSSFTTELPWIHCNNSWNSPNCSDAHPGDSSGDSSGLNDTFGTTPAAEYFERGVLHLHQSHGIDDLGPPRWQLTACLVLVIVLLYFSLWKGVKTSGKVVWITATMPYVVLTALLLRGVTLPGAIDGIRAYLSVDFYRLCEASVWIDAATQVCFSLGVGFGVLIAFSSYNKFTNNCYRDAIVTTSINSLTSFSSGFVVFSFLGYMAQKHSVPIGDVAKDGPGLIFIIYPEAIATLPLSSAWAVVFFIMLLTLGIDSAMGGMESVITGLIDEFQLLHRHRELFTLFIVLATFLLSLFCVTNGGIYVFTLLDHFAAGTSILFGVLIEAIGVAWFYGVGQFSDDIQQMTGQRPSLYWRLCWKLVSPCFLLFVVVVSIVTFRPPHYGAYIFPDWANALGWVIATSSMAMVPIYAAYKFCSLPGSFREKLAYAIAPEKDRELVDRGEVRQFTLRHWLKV", "assay": "Binding affinity to DAT (unknown origin)"}, "[14]": {"target": "Muscarinic acetylcholine receptor M5 (Homo sapiens, UniProt P08912)", "assay": "Binding affinity to M5 receptor (unknown origin)"}, "D(1A) dopamine receptor": {"target": "D(1A) dopamine receptor (Homo sapiens, UniProt P21728)", "sequence (P21728 whole entry)": "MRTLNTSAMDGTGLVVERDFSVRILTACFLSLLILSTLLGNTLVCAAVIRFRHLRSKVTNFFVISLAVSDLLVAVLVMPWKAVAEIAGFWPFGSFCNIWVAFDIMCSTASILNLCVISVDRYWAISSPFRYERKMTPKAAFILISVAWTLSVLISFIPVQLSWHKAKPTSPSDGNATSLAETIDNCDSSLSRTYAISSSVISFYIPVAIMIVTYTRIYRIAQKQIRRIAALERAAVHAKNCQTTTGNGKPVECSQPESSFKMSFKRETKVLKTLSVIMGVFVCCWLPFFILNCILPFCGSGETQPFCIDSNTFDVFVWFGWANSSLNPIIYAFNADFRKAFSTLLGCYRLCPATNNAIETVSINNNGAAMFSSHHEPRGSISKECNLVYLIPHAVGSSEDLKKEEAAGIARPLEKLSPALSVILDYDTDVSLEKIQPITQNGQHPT", "assay": "Binding affinity to D1 receptor (unknown origin)"}, "[15]": {"target": "T3, 5-hydroxytryptamine receptor 2C (Homo sapiens) (UniProt P28335)", "T3 sequence (whole entry)": "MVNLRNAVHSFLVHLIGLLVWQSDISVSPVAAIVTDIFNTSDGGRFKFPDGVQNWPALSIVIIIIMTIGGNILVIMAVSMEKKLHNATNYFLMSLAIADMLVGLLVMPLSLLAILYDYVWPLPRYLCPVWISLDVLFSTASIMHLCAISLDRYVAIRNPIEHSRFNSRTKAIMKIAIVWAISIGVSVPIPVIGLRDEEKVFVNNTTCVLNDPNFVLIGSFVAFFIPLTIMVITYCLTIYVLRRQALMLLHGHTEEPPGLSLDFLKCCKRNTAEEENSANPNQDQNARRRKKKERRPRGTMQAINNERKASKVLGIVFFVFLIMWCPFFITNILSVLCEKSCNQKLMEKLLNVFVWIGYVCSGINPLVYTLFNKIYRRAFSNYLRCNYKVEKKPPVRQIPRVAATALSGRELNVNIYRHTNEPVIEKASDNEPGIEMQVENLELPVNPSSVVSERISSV", "assay": "Agonist activity at 5-HT2C in HEK293 cells at 10 uM incubated for 60 mins by FLIPR assay relative to control", "assay_type": "functional, cell-based", "conditions": "filed as agonist"}, "[16]": {"target": "Sodium-dependent serotonin transporter (Rattus norvegicus) (UniProt P31652)", "sequence (P31652 whole entry)": "as the sequence (P31652 whole entry) above", "assay": "Antagonist activity at rat cerebral cortex membrane SERT at 10 uM incubated for 10 mins in presence of [3H]5-HT relative to control", "assay_type": "cell membranes", "set-up": "scale not given: the % may be the effect or the level left", "conditions": "filed as antagonist"}, "[17]": {"assay": "MRTlast in CD1 mouse at 15 mg/kg, po measured upto 24 hrs by LC-MS analysis", "assay_type": "ADME, organism-based", "conditions": "in vivo"}, "D(2) dopamine receptor": {"target": "D(2) dopamine receptor (Homo sapiens, UniProt P14416)", "assay": "Binding affinity to D2 receptor (unknown origin)"}, "[18]": {"target": "T3, 5-hydroxytryptamine receptor 2C (Homo sapiens)", "assay": "Antagonist activity at 5-HT2C in HEK293 cells at 10 uM incubated for 60 mins by FLIPR assay relative to control", "assay_type": "cell-based", "set-up": "scale not given: the % may be the effect or the level left", "conditions": "filed as antagonist"}, "[19]": {"target": "5-hydroxytryptamine receptor 6 (Homo sapiens, UniProt P50406)", "assay": "Binding affinity to 5-HT6 receptor (unknown origin)"}, "[20]": {"target": "5-hydroxytryptamine receptor 1A (Homo sapiens, UniProt P08908)", "sequence (P08908 whole entry)": "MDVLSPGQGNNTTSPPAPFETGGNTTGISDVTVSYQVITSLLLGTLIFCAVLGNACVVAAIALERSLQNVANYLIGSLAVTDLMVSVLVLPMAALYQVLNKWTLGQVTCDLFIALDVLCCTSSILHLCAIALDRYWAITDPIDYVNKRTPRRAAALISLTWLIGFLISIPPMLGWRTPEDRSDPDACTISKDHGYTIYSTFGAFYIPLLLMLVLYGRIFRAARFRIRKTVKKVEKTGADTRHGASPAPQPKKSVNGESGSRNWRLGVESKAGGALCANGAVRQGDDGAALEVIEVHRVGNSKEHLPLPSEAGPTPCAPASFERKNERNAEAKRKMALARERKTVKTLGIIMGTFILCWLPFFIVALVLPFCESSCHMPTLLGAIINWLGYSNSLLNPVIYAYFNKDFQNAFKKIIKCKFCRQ", "assay": "Binding affinity to 5-HT1A receptor (unknown origin)"}, "[21]": {"assay": "AUC(0 to infinity) in CD1 mouse at 15 mg/kg, po measured upto 24 hrs by LC-MS analysis", "assay_type": "ADME, organism-based", "conditions": "in vivo"}, "[22]": {"target": "T1, Sodium-dependent serotonin transporter", "assay": "Antagonist activity at rat cerebral cortex membrane SERT incubated for 10 mins in presence of [3H]5-HT", "assay_type": "cell membranes"}, "D(3) dopamine receptor": {"target": "D(3) dopamine receptor (Homo sapiens, UniProt P35462)", "sequence (P35462 whole entry)": "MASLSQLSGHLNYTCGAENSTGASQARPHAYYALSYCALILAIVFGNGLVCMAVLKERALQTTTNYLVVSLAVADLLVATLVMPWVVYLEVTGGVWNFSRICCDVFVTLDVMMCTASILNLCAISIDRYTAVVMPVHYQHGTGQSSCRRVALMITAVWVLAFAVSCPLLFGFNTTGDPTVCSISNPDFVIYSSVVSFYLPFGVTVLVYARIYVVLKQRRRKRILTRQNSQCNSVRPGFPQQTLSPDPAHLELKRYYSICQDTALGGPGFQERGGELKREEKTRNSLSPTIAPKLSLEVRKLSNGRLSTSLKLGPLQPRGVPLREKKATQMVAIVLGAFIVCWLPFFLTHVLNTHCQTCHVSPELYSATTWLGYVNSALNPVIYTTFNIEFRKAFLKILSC", "assay": "Binding affinity to D3 receptor (unknown origin)"}, "[23]": {"target": "5-hydroxytryptamine receptor 2A (Homo sapiens, UniProt P28223)", "assay": "Antagonist activity at 5-HT2A in HEK293 cells at 10 uM incubated for 60 mins by FLIPR assay relative to control", "assay_type": "cell-based", "set-up": "scale not given: the % may be the effect or the level left", "conditions": "filed as antagonist"}, "[24]": {"assay": "Cmax in CD1 mouse at 15 mg/kg, po measured upto 24 hrs by LC-MS analysis", "assay_type": "ADME, organism-based", "conditions": "in vivo"}, "[25]": {"assay": "AUC(0 to t) in CD1 mouse at 2 mg/kg, iv measured upto 10 hrs by LC-MS analysis", "assay_type": "ADME, organism-based", "conditions": "in vivo"}, "Mus musculus [26]": {"tested_on": "Mus musculus", "assay": "Antidepressant activity in Kunming mouse chronic unpredictable mild stress model assessed as increase in sucrose preference at 4 mg/kg, IG measured after 2 weeks", "assay_type": "functional, organism-based"}, "[27]": {"target": "Voltage-gated inwardly rectifying potassium channel KCNH2 (Homo sapiens, UniProt Q12809)", "sequence (Q12809 whole entry)": "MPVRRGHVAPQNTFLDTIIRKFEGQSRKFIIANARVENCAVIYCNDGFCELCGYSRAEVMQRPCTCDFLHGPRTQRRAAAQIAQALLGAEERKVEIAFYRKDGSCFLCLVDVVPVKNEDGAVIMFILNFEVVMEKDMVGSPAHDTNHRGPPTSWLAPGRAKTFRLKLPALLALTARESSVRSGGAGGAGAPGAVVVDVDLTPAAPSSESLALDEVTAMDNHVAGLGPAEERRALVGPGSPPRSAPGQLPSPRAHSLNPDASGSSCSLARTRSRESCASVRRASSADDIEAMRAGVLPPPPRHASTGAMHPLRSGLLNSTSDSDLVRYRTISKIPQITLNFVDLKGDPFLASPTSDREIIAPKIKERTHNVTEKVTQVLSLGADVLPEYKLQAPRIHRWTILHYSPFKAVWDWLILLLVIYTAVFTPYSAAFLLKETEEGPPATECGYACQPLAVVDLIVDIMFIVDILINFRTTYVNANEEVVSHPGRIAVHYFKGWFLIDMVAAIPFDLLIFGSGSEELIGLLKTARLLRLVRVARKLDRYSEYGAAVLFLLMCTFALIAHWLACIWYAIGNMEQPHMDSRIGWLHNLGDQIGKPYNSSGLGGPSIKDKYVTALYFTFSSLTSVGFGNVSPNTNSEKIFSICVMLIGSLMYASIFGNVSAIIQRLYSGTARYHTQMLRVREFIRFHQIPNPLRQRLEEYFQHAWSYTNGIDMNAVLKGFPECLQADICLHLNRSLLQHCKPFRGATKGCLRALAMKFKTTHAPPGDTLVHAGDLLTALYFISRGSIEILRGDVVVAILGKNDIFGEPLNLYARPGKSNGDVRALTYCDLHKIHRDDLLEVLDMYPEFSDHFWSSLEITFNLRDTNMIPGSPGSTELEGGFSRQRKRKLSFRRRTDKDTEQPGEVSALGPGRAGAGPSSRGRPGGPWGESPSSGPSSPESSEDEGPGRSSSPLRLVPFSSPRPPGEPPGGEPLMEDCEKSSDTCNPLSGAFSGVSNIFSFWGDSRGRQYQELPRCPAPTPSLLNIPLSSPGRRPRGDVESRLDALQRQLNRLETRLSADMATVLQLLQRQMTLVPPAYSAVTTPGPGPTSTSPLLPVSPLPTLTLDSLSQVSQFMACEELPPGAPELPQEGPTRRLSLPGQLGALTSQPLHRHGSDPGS", "assay": "Inhibition of human ERG expressed in HEK293 cells by whole-cell patch clamp method", "assay_type": "toxicity, cell-based"}, "Mus musculus [28]": {"tested_on": "Mus musculus", "assay": "Antidepressant activity in IG dosed Kunming mouse assessed as decrease in immobility time by measuring minimal effective dose by forced swimming test", "assay_type": "functional"}},
  "note": "The source made the active and inactive calls. The calls are words filed in the database; no cut-off is given here.",
  "data": [
    {"smiles": "CN(C)CC[C@@H](Oc1cccc2c1OCO2)c1ccc(F)cc1.O=C(O)C(=O)O", "values": [
      {"measurement": "Ki", "setting": "[1]", "value": 0.0058, "unit": "µM"},
      {"measurement": "Ki", "setting": "[2]", "value": "> 1", "unit": "µM"},
      {"measurement": "MRT last at 10 h", "setting": "[3]", "value": 1.1, "unit": "h"},
      {"measurement": "Activity", "setting": "Rattus norvegicus [4]", "value": "Active"},
      {"measurement": "half-life", "setting": "[5]", "value": 1.8, "unit": "h"},
      {"measurement": "ED50", "setting": "Rattus norvegicus [6]", "value": 23.1, "unit": "mg/kg"},
      {"measurement": "Ki", "setting": "[7]", "value": "> 1", "unit": "µM"},
      {"measurement": "Ki", "setting": "[8]", "value": 0.0157, "unit": "µM"},
      {"measurement": "half-life", "setting": "[9]", "value": 1.2, "unit": "h"},
      {"measurement": "ED50", "setting": "[10]", "value": 1.07, "unit": "mg/kg"},
      {"measurement": "Activity", "setting": "Mus musculus [11]", "value": "Dose-dependent-effect"},
      {"measurement": "Activity", "setting": "Mus musculus [12]", "value": "inactive"},
      {"measurement": "Ki", "setting": "[13]", "value": "> 1", "unit": "µM"},
      {"measurement": "Ki", "setting": "[14]", "value": "> 1", "unit": "µM"},
      {"measurement": "Ki", "setting": "D(1A) dopamine receptor", "value": "> 1", "unit": "µM"},
      {"measurement": "Activity", "setting": "[15]", "value": 18.1, "unit": "%"},
      {"measurement": "Activity", "setting": "[16]", "value": 99.7, "unit": "%"},
      {"measurement": "MRT last at 24 h", "setting": "[17]", "value": 3.1, "unit": "h"},
      {"measurement": "Ki", "setting": "D(2) dopamine receptor", "value": "> 1", "unit": "µM"},
      {"measurement": "Activity", "setting": "[18]", "value": 99.1, "unit": "%"},
      {"measurement": "Ki", "setting": "[19]", "value": "> 1", "unit": "µM"},
      {"measurement": "Ki", "setting": "[20]", "value": "> 1", "unit": "µM"},
      {"measurement": "AUC(0-inf)", "setting": "[21]", "value": 474, "unit": "ng·h/mL"},
      {"measurement": "IC50", "setting": "[22]", "value": 0.0232, "unit": "µM"},
      {"measurement": "Ki", "setting": "D(3) dopamine receptor", "value": "> 1", "unit": "µM"},
      {"measurement": "Activity", "setting": "[23]", "value": 100, "unit": "%"},
      {"measurement": "Cmax", "setting": "[24]", "value": 144, "unit": "ng/mL"},
      {"measurement": "AUC(0-t) at 10 h", "setting": "[25]", "value": 304, "unit": "ng·h/mL"},
      {"measurement": "Activity", "setting": "Mus musculus [26]", "value": "Active"},
      {"measurement": "IC50", "setting": "[27]", "value": 1.23, "unit": "µM"},
      {"measurement": "Activity", "setting": "Mus musculus [28]", "value": "Dose-dependent-effect"},
      {"measurement": "minimal effective dose", "setting": "Mus musculus [28]; po, read-out: MED", "value": 6.4, "unit": "mg/kg"}
    ]}
  ]
}
